The results in this text go back to patent publication US20080207450A1, “Method of Substantially Preventing or Inhibiting Summer Bentgrass Decline” (priority 2007, published 2008).

In the experiment the test system is Creeping bentgrass. In words: Outdoor bentgrass bed exposed to elevated atmospheric carbon dioxide over summer; visual quality and root depth. In kind it is in vivo, Agrostis stolonifera. The note with it: about 700 ppm carbon dioxide from daylight until dark, July and August. The method, then:
In the fall, the inventors established an outdoor bed of bentgrass in Lincoln Parish, La. This region has an average daily high temperature in July and August of 93° F. (www.enlou.com/econ/lincoln_econ.htm). The bed of bentgrass established by the inventors was a randomized block comprising three varieties of Creeping bentgrass: Penn A1 (Agrostis stolonifera ‘Penn A-1’), Penn A2, (Agrostis stolonifera ‘Penn A-2’) and Penn A4 (Agrostis stolonifera ‘Penn A-4’). The bentgrass bed was maintained over the winter. During the following July and August, the inventors constructed a conduit system through which carbon dioxide was pumped over a portion of the bentgrass bed (test zone). The conduit system comprised a plurality of hollow PVC pipes, each pipe having an approximate length of 72 inches and an approximate diameter of ¾ of an inch. Several of the pipes were affixed to each other to form the perimeter of a support platform having a rectangular shape. The remaining pipes were arranged in a parallel fashion and affixed within the support platform. […] The carbon dioxide concentrations in both zones were monitored via a standard, commercially available gas analyzer. At the end of August, both the treated and non-treated areas of the bentgrass were assayed visually for quality and also measured for root-depth.

`O=C=O` [carbon dioxide]: the “length of sample root” value (sample root from test zone, measured at end of August) is “approximately 10.75 inches”. Also, the “visual quality of bentgrass” value (test zone, Lincoln Parish, La., assayed at end of August, varieties Penn A1, A2, A4) was “did not experience a loss in quality”.
